T/C data for 12 compounds are collected here from PubChem BioAssay AID248 (DTP/NCI, 2004).

The experiment deals with L1210 leukemia ip in BDF1 mice, survival T/C. Briefly: NCI In Vivo Anticancer Drug Screen. Data for tumor model L1210 Leukemia (intraperitoneal) in B6D2F1 (BDF1) mice. The conditions noted are these: endpoint: mean survival time, higher = longer survival. The essentials:
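Survival endpoint. Drug-treated group vs vehicle group, expressed as T divided by C. Tumor passaged by transplantation.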

Where [1] appears, read: dose: 25.0 mg/kg/injection, schedule: Q01DX009 (ip), vehicle: saline.
Setting [2] is: dose: 100.0 mg/kg/injection, schedule: Q04DX002 (ip), vehicle: Klucel (hydroxypropylcellulose) (HPC).
Setting [3] is: dose: 60.0 mg/kg/injection, schedule: Q01DX Z (ip), vehicle: carboxymethylcellulose (CMC).

Values joined by “and” are separate entries in the source; they are usually repeats but may differ in a detail not shown here. Equal entries are not always repeated. Inconclusive results and toxic doses are left out.

As to `O=C(CCN1CC1)OCC1CC1`, the T/C is, setting by setting: (dose: 2.5 mg/kg/injection, schedule: Q01DX009 (ip), vehicle: Klucel (hydroxypropylcellulose) (HPC)) 103 % of control; (dose: 5.0 mg/kg/injection, schedule: Q01DX009 (ip), vehicle: Klucel (hydroxypropylcellulose) (HPC)) 97 % of control; (dose: 10.0 mg/kg/injection, schedule: Q01DX009 (ip), vehicle: Klucel (hydroxypropylcellulose) (HPC)) 105 % of control; (dose: 20.0 mg/kg/injection, schedule: Q01DX009 (ip), vehicle: Klucel (hydroxypropylcellulose) (HPC)) 114 % of control; (dose: 20.0 mg/kg/injection, schedule: Q04DX003 (ip), vehicle: Klucel (hydroxypropylcellulose) (HPC)) 98 % of control; (dose: 40.0 mg/kg/injection, schedule: Q04DX003 (ip), vehicle: Klucel (hydroxypropylcellulose) (HPC)) 101 % of control. The T/C (dose: 80.0 mg/kg/injection, schedule: Q04DX003 (ip), vehicle: Klucel (hydroxypropylcellulose) (HPC)) is 97 % of control.
On to `CCC(C)N(CCCOC(=O)c1ccc(N)cc1)C(C)CC` (stereo not given), for which the T/C (dose: 12.5 mg/kg/injection, schedule: Q01DX009 (ip), vehicle: saline) is 106 % of control; the T/C under setting [1] is 104 % of control; the T/C (dose: 50.0 mg/kg/injection, schedule: Q01DX009 (ip), vehicle: saline) was 97 % of control.
Take `Cc1n[n+]([O-])c(C)cc1[N+](=O)[O-]`: the T/C was 112 % of control under setting [2] and 101 % of control (dose: 200.0 mg/kg/injection, schedule: Q04DX002 (ip), vehicle: Klucel (hydroxypropylcellulose) (HPC)).
In the case of `ClCCOCCOc1ccccc1OCCOCCCl`, the T/C is 100 % of control (dose: 50.0 mg/kg/injection, schedule: Q04DX002 (ip), vehicle: saline with Tween-80) and 90 % of control (dose: 100.0 mg/kg/injection, schedule: Q04DX002 (ip), vehicle: saline with Tween-80).
On to `CCCCN(C)N=Nc1ccc(OCC(=O)NN)cc1`, for which the T/C by setting is: (dose: 10.0 mg/kg/injection, schedule: Q01DX Z (ip), vehicle: carboxymethylcellulose (CMC)) 93 % of control; (dose: 15.0 mg/kg/injection, schedule: Q01DX Z (ip), vehicle: carboxymethylcellulose (CMC)) 96 % of control; (dose: 20.0 mg/kg/injection, schedule: Q01DX Z (ip), vehicle: carboxymethylcellulose (CMC)) 91 % of control; (dose: 30.0 mg/kg/injection, schedule: Q01DX Z (ip), vehicle: carboxymethylcellulose (CMC)) 114 % of control; under setting [3], 95 % of control.
As to `O=C(Nc1ccc([N+](=O)[O-])cc1)Oc1c(Cl)cc(Cl)c(Cl)c1[N+](=O)[O-]`, the T/C by setting is: (dose: 25.0 mg/kg/injection, schedule: Q04DX002 (ip), vehicle: Klucel (hydroxypropylcellulose) (HPC)) 112 % of control; (dose: 50.0 mg/kg/injection, schedule: Q04DX002 (ip), vehicle: Klucel (hydroxypropylcellulose) (HPC)) 97 % of control; under setting [2], 94 % of control and 90 % of control.
As to `CC[n+]1ccc(Nc2ccc(NC(=O)c3ccc(Nc4cc[n+](CC)c5ccc([N+](=O)[O-])cc45)cc3)cc2)cc1`, the T/C by setting is: (dose: 4.13 mg/kg/injection, schedule: Q04DX003 (ip), vehicle: saline sonified) 114 % of control; (dose: 4.5 mg/kg/injection, schedule: Q01DX009 (ip), vehicle: Klucel (hydroxypropylcellulose) (HPC)) 117 % of control; (dose: 6.25 mg/kg/injection, schedule: Q04DX003 (ip), vehicle: Klucel (hydroxypropylcellulose) (HPC)) 108 % of control; (dose: 6.25 mg/kg/injection, schedule: Q04DX003 (ip), vehicle: saline sonified) 117 % of control; (dose: 9.38 mg/kg/injection, schedule: Q04DX003 (ip), vehicle: saline sonified) 115 % of control; (dose: 10.44 mg/kg/injection, schedule: Q01DX009 (ip), vehicle: saline with Tween-80) 117 % of control. Besides, the T/C (dose: 11.0 mg/kg/injection, schedule: Q01DX009 (ip), vehicle: saline) was 115 % of control; the T/C (dose: 12.5 mg/kg/injection, schedule: Q01DX001 (ip), vehicle: Klucel (hydroxypropylcellulose) (HPC)) is 100 % of control; the T/C (dose: 12.5 mg/kg/injection, schedule: Q04DX003 (ip), vehicle: Klucel (hydroxypropylcellulose) (HPC)) was 112 % of control; the T/C (dose: 16.5 mg/kg/injection, schedule: Q01DX009 (ip), vehicle: Klucel (hydroxypropylcellulose) (HPC)) was 175 % of control; the T/C (dose: 25.0 mg/kg/injection, schedule: Q01DX001 (ip), vehicle: Klucel (hydroxypropylcellulose) (HPC)) is 102 % of control; the T/C (dose: 25.0 mg/kg/injection, schedule: Q01DX009 (ip), vehicle: Klucel (hydroxypropylcellulose) (HPC)) is 160 % of control. In addition, the T/C by setting is: (dose: 25.0 mg/kg/injection, schedule: Q01DX009 (ip), vehicle: saline sonified) 230 % of control; under setting [1], 160 % of control; (dose: 25.0 mg/kg/injection, schedule: Q04DX003 (ip), vehicle: Klucel (hydroxypropylcellulose) (HPC)) 122 % of control; (dose: 37.5 mg/kg/injection, schedule: Q01DX009 (ip), vehicle: saline) 184 % of control.
Turning to `Oc1ccccc1C=Nc1ccc(I)cc1.Oc1ccccc1C=Nc1ccc(I)cc1.[Co]`, the T/C runs as follows: (dose: 100.0 mg/kg/injection, schedule: Q04DX003 (ip), vehicle: saline with Tween-80) 96 % of control; (dose: 200.0 mg/kg/injection, schedule: Q04DX003 (ip), vehicle: saline with Tween-80) 108 % of control; (dose: 400.0 mg/kg/injection, schedule: Q04DX003 (ip), vehicle: saline with Tween-80) 102 % of control.
For `O=C(O)CCC1(c2ccccc2)CCCC1=O` (stereo not given), the T/C (dose: 12.5 mg/kg/injection, schedule: Q01DX009 (ip), vehicle: water) was 101 % of control; the T/C (dose: 25.0 mg/kg/injection, schedule: Q01DX009 (ip), vehicle: water) is 104 % of control; the T/C (dose: 50.0 mg/kg/injection, schedule: Q01DX009 (ip), vehicle: water) is 98 % of control; the T/C (dose: 100.0 mg/kg/injection, schedule: Q01DX009 (ip), vehicle: water) is 95 % of control.
As to `N/C(=N\[N+](=O)[O-])N(CCCCl)N=O`, the T/C is 105 % of control (dose: 3.12 mg/kg/injection, schedule: Q01DX Z (ip), vehicle: saline); 106 % of control (dose: 6.25 mg/kg/injection, schedule: Q01DX Z (ip), vehicle: saline); 106 % of control (dose: 12.5 mg/kg/injection, schedule: Q01DX Z (ip), vehicle: saline); 107 % of control (dose: 18.75 mg/kg/injection, schedule: Q01DX009 (ip), vehicle: saline with Tween-80); 120 % of control (dose: 25.0 mg/kg/injection, schedule: Q01DX Z (ip), vehicle: saline); 103 % of control (dose: 37.5 mg/kg/injection, schedule: Q01DX009 (ip), vehicle: saline with Tween-80). Besides, the T/C was 119 % of control (dose: 40.0 mg/kg/injection, schedule: Q01DX Z (ip), vehicle: carboxymethylcellulose (CMC)); 108 % of control (dose: 50.0 mg/kg/injection, schedule: Q01DX001 (ip), vehicle: saline); 116 % of control under setting [3]; 123 % of control (dose: 75.0 mg/kg/injection, schedule: Q01DX009 (ip), vehicle: saline with Tween-80); 111 % of control (dose: 90.0 mg/kg/injection, schedule: Q01DX Z (ip), vehicle: carboxymethylcellulose (CMC)); 97 % of control (dose: 100.0 mg/kg/injection, schedule: Q01DX001 (ip), vehicle: saline). The T/C by setting is: (dose: 150.0 mg/kg/injection, schedule: Q01DX009 (ip), vehicle: saline with Tween-80) 104 % of control; (dose: 200.0 mg/kg/injection, schedule: Q01DX001 (ip), vehicle: saline) 106 % of control.
Consider `CN(C)C(=O)c1cc(NC(=O)Nc2ccc(C3=NCCN3)cc2)cc(NC(=O)Nc2ccc(C3=NCCN3)cc2)c1`, for which the T/C reads like this: (dose: 15.0 mg/kg/injection, schedule: Q01DX Z (ip), vehicle: saline) 158 % of control; (dose: 30.0 mg/kg/injection, schedule: Q01DX Z (ip), vehicle: saline) 222 % of control; (dose: 60.0 mg/kg/injection, schedule: Q01DX Z (ip), vehicle: saline) 250 % of control.
Regarding `Cc1[nH]c2ccccc2c1C1CCC(=O)C1` (stereo not given), the T/C was 100 % of control (dose: 100.0 mg/kg/injection, schedule: Q01DX001 (ip), vehicle: carboxymethylcellulose (CMC)); 89 % of control (dose: 200.0 mg/kg/injection, schedule: Q01DX001 (ip), vehicle: carboxymethylcellulose (CMC)); 93 % of control (dose: 400.0 mg/kg/injection, schedule: Q01DX001 (ip), vehicle: carboxymethylcellulose (CMC)).
